Test results as given in ChEMBL document CHEMBL3352491, “Novel semicarbazides and ureas of primaquine with bulky aryl or hydroxyalkyl substituents: synthesis, cytostatic and antioxidative activity” (Eur J Med Chem, 2014).

Columns and labels:
[1] = Antioxidant activity assessed as DPPH scavenging activity at 100 uM after 60 mins by spectrophotometry; type: physicochemical; settings: 1 h
[2] = Cytostatic activity against human H460 cells assessed as growth inhibition after 3 to 4 days by MTT assay; type: functional, cell-based; settings: NCI-H460
[3] = target: Lipoxygenase (Glycine max, UniProt Q39829); test: Inhibition of soybean LOX using sodium linoleate as substrate by spectrophotometry; settings: read-out: IC50
[4] = tested on: CCRF-CEM; test: Cytostatic activity against human CEM cells assessed as growth inhibition after 3 to 4 days by MTT assay; type: functional, cell-based
[5] = tested on: L1210; test: Cytostatic activity against mouse L1210 cells assessed as growth inhibition after 3 to 4 days by MTT assay; type: functional, cell-based
[6] = Antioxidant activity assessed as DPPH scavenging activity at 100 uM after 20 mins by spectrophotometry; type: physicochemical
[7] = tested on: HeLa; test: Cytostatic activity against human HeLa cells assessed as growth inhibition after 3 to 4 days by MTT assay; type: functional, cell-based
[8] = tested on: MCF7; test: Cytostatic activity against human MCF7 cells assessed as growth inhibition after 3 to 4 days by MTT assay; type: functional, cell-based
[9] = tested on: SW-620; test: Cytostatic activity against human SW620 cells assessed as growth inhibition after 3 to 4 days by MTT assay; type: functional, cell-based
[10] = Antioxidant activity assessed as inhibition of lipid peroxidation at 100 uM by spectrophotometry; type: physicochemical
[11] = Cytostatic activity against human Molt4/C8 cells assessed as growth inhibition after 3 to 4 days by MTT assay; type: functional, cell-based; settings: MOLT-4
[12] = Cytostatic activity against human MIAPaCa2 cells assessed as growth inhibition after 3 to 4 days by MTT assay; type: functional, cell-based; settings: MIA PaCa-2
[13] = target: Lipoxygenase (Glycine max) (UniProt Q39829); test: Inhibition of soybean LOX using sodium linoleate as substrate at 100 uM by spectrophotometry

COc1cc(NC(C)CCCNC(=O)NC(c2ccccc2)c2ccc(Cl)cc2)c2ncccc2c1 (centres undefined)
Activity [1]: 24%
IC50 [2]: > 100 µM
IC50 [3]: 57.9 µM
IC50 [4]: 86 µM
IC50 [5]: 94 µM
Activity [6]: 12%
IC50 [7]: 186 µM
IC50 [8]: > 100 µM
IC50 [9]: > 100 µM
inhibition (INH) [10]: 90%
IC50 [11]: ≥ 250 µM
IC50 [12]: 181 µM

COc1ccc(C(=NNC(=O)NNC(=O)NCCCC(C)Nc2cc(OC)cc3cccnc23)c2ccc(OC)cc2)cc1 (centres undefined)
Activity [1]: 84%
IC50 [2]: 5 µM
IC50 [3]: 75 µM
IC50 [4]: 8 µM
IC50 [5]: 7.5 µM
Activity [6]: 37%
IC50 [7]: 50 µM
IC50 [8]: 1 µM
IC50 [9]: ≥ 100 µM
inhibition (INH) [10]: 82%
IC50 [11]: 12 µM
IC50 [12]: 11 µM

COc1ccc(/C(=N/NC(=O)NNC(=O)NCCCC(C)Nc2cc(OC)cc3cccnc23)c2ccccc2)cc1 (centres undefined)
Activity [1]: 64%
IC50 [2]: 7 µM
IC50 [3]: 60.5 µM
IC50 [4]: 7.4 µM
IC50 [5]: 6.2 µM
Activity [6]: 47%
IC50 [7]: 18 µM
IC50 [8]: 2 µM
IC50 [9]: 7 µM
inhibition (INH) [10]: 78%
IC50 [11]: 12 µM
IC50 [12]: 13 µM

CC(Cc1ccc(O)c(O)c1)C(C)Cc1ccc(O)c(O)c1 (centres undefined) [NORDIHYDROGUAIARETIC ACID]
Activity [1]: 91%
IC50 [3]: 28 µM
Activity [6]: 80%
inhibition [13]: 84%

CN(C(=O)n1nnc2ccccc21)C(c1ccccc1)c1ccccc1
Activity [1]: Not Active
IC50 [2]: 27 µM
IC50 [3]: 87.5 µM
IC50 [4]: 24 µM
IC50 [5]: 15 µM
Activity [6]: 3%
IC50 [7]: 25 µM
IC50 [8]: 23 µM
IC50 [9]: ≥ 100 µM
inhibition (INH) [10]: 76%
IC50 [11]: 28 µM
IC50 [12]: 26 µM

COc1ccc(/C(=N/NC(=O)NCCCC(C)Nc2cc(OC)cc3cccnc23)c2ccccc2)cc1 (centres undefined)
Activity [1]: 26%
IC50 [2]: > 100 µM
IC50 [3]: 60.5 µM
IC50 [4]: 10 µM
IC50 [5]: 34 µM
Activity [6]: 19%
IC50 [7]: 129 µM
IC50 [8]: 5 µM
IC50 [9]: > 100 µM
inhibition (INH) [10]: 77%
IC50 [11]: ≥ 250 µM
IC50 [12]: 155 µM
